One experiment deals with Jurkat (T-ALL). The experiment is described as follows: Apoptosis FACS in leukaemia cell line Jurkat. Type of experiment: cell-based. The note with it: 0.2 μM gliotoxin, 24 h. The protocol: FIG. 7: (A) The apoptotic activity of gliotoxin on further B-CLL patient samples (CLL4-CLL8) is illustrated. The (non-Notch2-associated) leukaemia cell lines (or the leukaemia cell lines not characterised by ligand-independent Notch2 fragments) Jurkat (T-ALL), SH1 (hairy cell carcinoma), RL-7 and K562 (CML) are resistant to a treatment with 0.2 μM (corresponding to 60 ng/ml) of gliotoxin. Cells were incubated for 24 h+/−gliotoxin, and the percentage of apoptotic cells (probidium-iodide+/annexinV+) was determined by means of FACS analysis. In none of the 4 non-Notch2-associated cell lines indicated, the application of 0.2 μM of gliotoxin led to a significant induction of apoptosis within 24 hours. The cytotoxic effect of Gliotoxin correlates with the Notch2 activity in leukemias. (B) Corresponding EMSA showing the activity of Notch2 in B-CLL cells and in leukemic cell lines (Jurkat, SH1, RL7, and K562).

The subject of experiment [1] is HepG2 (hepatocellular carcinoma). Description: Cell count analysis HepG2. Type of experiment: cell-based, human. The note with it: HepG2, 200 nM gliotoxin, 72 h. As for the experimental part: (§1) FIG. 8 a-d: Effects of gliotoxin on cell counts of various human tumour cell lines in vitro. Cell counts of a) hepatocellular carcinoma cell lines HepG2, Huh7, SNU398, Hep3b, HeLa (cervix) and the cholangiocarcinoma cell line NEC as well as b) the pancreatic cancer cell line Panc-1 and the melanoma cell lines d) MelJuso, Meljuso-Bcl-2 (+) and 607B after 72 h treatment with 200 nM gliotoxin; c-d) Cell count dose range experiments with c) pancreatic carcinoma cell lines Panc-1 and MiaPaCa as well as melanoma cell lines MelJuso, 518A2 and 607B using 25, 50 100 and 200 nM gliotoxin for 24 h. All data are given relative to control ±standard deviation.
(§2) Tumour cells were seeded at a density of 10,000 cells/well in 24-well plates. 24 h after seeding, medium containing gliotoxin was added to yield desired concentrations of gliotoxin. At time points indicated, culture medium was removed by suction. Adherent cells were washed with DPBS (Cambrex, Verviers, Belgium) and incubated with trypsin (Gibco) at 37° C. Detached cells were transferred to test tubes containing Cellpack isotonic fluid (Sysmex Europe, Bornbarch, Germany) and counted with a Coulter Z1 electronic cell counter (Beckman Coulter, Bedford, UK).

The test system of experiment [2] is cultures from animal cells. The note with it: cited from earlier work.
The next experiment relates to Notch2. The experiment is described as follows: Notch2 activity band shift assay in 518A2. Type of experiment: cell-based, human. The following applies: 518A2, 200 nM gliotoxin, maximum at 24 h. As for the experimental part: FIG. 10 a-b: Effects of gliotoxin on Notch2 regulation and apoptosis. The melanoma cell line 518A2 (A) and the pancreatic cancer cell line Panc-1 (B) were treated with 200 nM gliotoxin or vehicle control for 24 h Notch2 activity was analysed by band shift assay. Apoptosis was measured as annexin V and 7-AAD double positivity by FACS. Data are given as percentage of apoptotic cells ±standard deviation.
500,000 cells were seeded on 12 cm^2 plates for 24 h and then treated with 200 nM gliotoxin. At the time points as indicated cells were harvested and immediately frozen at −80° C. The band shift assay was performed as described for B-CLL.

The test system of experiment [3] is PBMCs from healthy donors. Description: Apoptosis of control PBMCs from healthy donors by FACS. Type of experiment: cell-based, human. The note with it: 0.2 μM gliotoxin, 4 hours. As for the experimental part: (§3) FIG. 4: Gliotoxin induces apoptosis in unstimulated as well as in TPA-stimulated B-CLL cells within 4 hours. Normal PBMCs (peripheral blood mononuclear cells) from healthy donors show a markedly lower Notch2 activity. Although gliotoxin inhibits Notch2 also in normal, TPA-stimulated cells, the gliotoxin-caused apoptosis rate is markedly lower in normal cells as compared to B-CLL cells. Non-stimulated and TPA stimulated PBMC's from healthy donors (HD) are less sensitive to 0.2 μM Gliotoxin despite a basal Notch2 activity. PBMC's and CLL cells were incubated with 0.2 μM Gliotoxin with or without TPA for 4 hours and the Notch2 activity as well as the percentage of apoptotic cells were determined by EMSA and FACS analysis, respectively.
(§4) After 4 hours of gliotoxin treatment, massive signs of the starting apoptosis (AnnexinV+) could already be recognized in B-CLL cells. This effect was increased by TPA (a phorbol ester which stimulates the activation of lymphocytes).
For orientation: In flow cytometry, cells or beads pass a laser one at a time.

For experiment [4], the system named is Nec (cholangiocellular carcinoma). The experiment is described as follows: Cell count analysis Nec. Format: cell-based, human. The following applies: 200 nM gliotoxin, 72 h. The protocol: as §1, §2
For experiment [5], the system named is Hep3B (hepatocellular carcinoma). The experiment is described as follows: Cell count analysis Hep3B. Type of experiment: cell-based, human. The following applies: 200 nM gliotoxin, 72 h. The protocol: as §1, §2
The subject of experiment [6] is Meljuso-Bcl-2 (+) (Bcl-2 over expressing melanoma cell line). Description: Cell count analysis Meljuso-Bcl-2 (+). Type of experiment: cell-based, human. The protocol: as §1, §2
Experiment [7] relates to SNU398 (hepatocellular carcinoma). Description: Cell count analysis SNU398. Format: cell-based, human. As for the experimental part: as §1, §2
In a further experiment the test system is B-CLL cells. Description: Apoptosis of B-CLL cells by FACS (Probidium iodide/annexinV). Type of experiment: cell-based, human. The following applies: for apoptosis: 0.2 μM gliotoxin, 4 hours. The protocol: FIG. 3: Gliotoxin is a potent Notch2 trans-activation inhibitor in B-CLL cells. (A) EMSA showing the inhibition of DNA-bound Notch2IC complexes in the presence of 0.2 μg Gliotoxin. B-CLL samples (n=10) were cultured in the presence of 1 ng/ml TPA with or without 0.2 μM Gliotoxin for 24 hours. Nuclear extracts were subjected to EMSA using a oligonucleotide probe spanning a well defined CBF1/NotchIC binding site derived from the CD23a promoter. (B). Corresponding FACS analysis (plus 10 additional B-CLL samples) showing the downregulation of the Notch2 target gene CD23 as well as the induction of apoptosis of Gliotoxin treated B-CLL samples. Columnes represent the percentage of CD19^+CD23^+ (grey bars) and apoptotic cells (black bars: including early apoptotic cells single positive for AnnexinV, and late apoptotic cells double positive for AnnexinV and probidium iodide), respectively.
as §3
As drug screening model, a cell culture system was established which conserves the phenotype of freshly isolated B-CLL cells (3×10^6 B-CLL cells/ml RPMI medium+10% FCS, supplemented with 1 ng/ml of TPA). Notch2 activity in the cell nucleus is determined by means of EMSA (electrophoretic mobility shift assay) experiments, and the cell viability (Probidium iodide/annexinV) and CD23 expression (Notch2 target gene) is determined by means of FACS (flow cytometry) analyses, respectively.
B-CLL cells were cultured for 24 h in the presence of 0.2 μM/ml of gliotoxin. This treatment led to a dramatic loss of the transcriptional Notch2 activity, as shown in the following representative EMSA (FIG. 3).
as §4

Each structure is given as a SMILES string. Some results are limits rather than exact numbers.

For `CN1C(=O)[C@]23CC4=CC=C[C@H](O)[C@H]4N2C(=O)[C@@]1(CO)SS3` [gliotoxin, [3R-(3α,5aβ,6β,10aα)]-2,3,5a,6-tetrahydro-6-hydroxy-3-(hydroxymethyl)-2-methyl-10H-3,10a-epi-dithiopyrazino[1,2-a]indol-1,4-dion], in the experiment on Jurkat (T-ALL), the “induction of apoptosis (probidium-iodide+/annexinV+)” value is recorded as “resistant”. For the same compound, the “mean reduction of cell numbers compared to vehicle treated controls” value was 67% in experiment [1]; 93% in [4]; 88% in experiment [5]; 96% in experiment [7] (SNU398, 200 nM gliotoxin, 72 h). Also, the “concentration at which the effect changes towards necrosis” value in [2] is recorded as “more than 10 μM”. In experiment [2], the “concentration for complete necrosis of the cell cultures” value was at least 50 µM. For the same compound, in the experiment on Notch2, the “Notch-2 activity (band shift assay)” value is “time dependent down regulation”. The apoptosis in [3] (TPA-stimulated PBMCs) is reported as 17%; in [3] (non-stimulated PBMCs), 20%; in the experiment on B-CLL cells (TPA-stimulated B-CLL cells), 73%; in the experiment on B-CLL cells (non-stimulated B-CLL cells) it was 54%. For the same compound, the response was around 100% in [6] (MelJuso +BCL2, 0.2 μM (60 ng/ml)); around 100% in [7] (SNU-398, 0.2 μM (60 ng/ml)); around 100% with B-CLL cells (B-CLL-cases, 0.2 μM (60 ng/ml)). Moreover, the cell count decrease in [6] (Meljuso-Bcl-2 (+), 200 nM gliotoxin, 72 h) is 94%. The “mean value of apoptosis” value with B-CLL cells (B-CLL cells cultured 24 h with 0.2 μM gliotoxin, n=10) was found to be 73%.

The values are drawn from patent US7981878B2, “Tumor treatment with gliotoxin derivatives” (priority 2005, dated 2011).
